According to ChEMBL document CHEMBL1159026, “Brominated beta-carbolines from the marine tunicate Eudistoma album” (1992):
≈ marks a conversion by molar mass, not a printed value.

Tests used:
Format in all cases: functional
KB [1] = test: Cytotoxicity against human KB cells at 0.005 to 10 ug/ml
KB [2] = test: Cytotoxicity against human KB cells at 10 ug/ml
KB [3] = test: Cytotoxicity against human KB cells at 5 ug/ml
KB [4] = test: Cytotoxicity against human KB cells at 1 ug/ml
KB [5] = test: Cytotoxicity against human KB cells; settings: read-out: ED50 (the source's name)

| Structure (SMILES) | EC50 (KB [1]; Homo sapiens, KB, read-out: ED50 (the source's name)) | Activity (KB [2]) | Activity (KB [3]) | Activity (KB [4]) | EC50 (KB [5]) | Activity (KB [1]) |
| --- | --- | --- | --- | --- | --- | --- |
| CC(C)CC(N)c1nccc2c1[nH]c1cc(Br)ccc12 (centres undefined) [EUDISTALBIN A] | 3.2 µg/mL (≈ 9.63 µM) | 100% | 92% | 0% | 3.2 µg/mL (≈ 9.63 µM) |  |
| CC(C)CC(=O)c1nccc2c1[nH]c1cc(Br)ccc12 [EUDISTALBIN B] |  | 0% |  | 0% |  |  |
| N[C@@H]1CSCON2CCc3c([nH]c4ccc(O)c(Br)c34)[C@H]12 [EUDISTOMIN E] |  |  |  |  | < 0.005 µg/mL | 100% |
